Experimental data published in patent US10004222B2, “Small molecule ice recrystallization inhibitors and methods of use thereof” (THE UNIVERSITY OF OTTAWA, priority 2012, dated 2018).
Where “and” joins values, the source holds several entries; their conditions need not be identical. Equal entries are not always repeated. Entries after “also recorded” stand apart in the source; their conditions may differ.

Legend:
Tf1-α cells = experiment: cryopreservation of Tf1-α cells, viability/apoptosis by flow cytometry (7-AAD, Annexin V); format: cell-based; details: for Apoptosis (%) / Cell Viability (%): 55 mM aryl-aldonamide, post-thaw; for cell viability: stored at −196° C. for 48 hours
Procedure: Tf1-α cells were cultured to a final concentration of 2-3×10^6 cells/mL. Three million cells were transferred into cryovials and media were removed by aspiration after centrifugation at 1000 rpm for five minutes. 100 μL of RPMI media (10% FBS) supplemented with the cryopreservative of interest was added to the cryovial and vortexed. The cryovials were cooled at a rate of −1° C./min for 24 hours to −80° C. before being transferred to a liquid nitrogen dewar for storage until analysis.
Cryovials were thawed under fast thaw conditions (submerged in 37° C. water bath). The cells were then diluted to a concentration of 3×10^6 cells/mL with 1× Annexin V Binding Buffer and a cell count was obtained by hemacytometer (to obtain cell recovery). A 400 μL aliquot was transferred to a flow cytommetry tube. 10 μL of each Annexin V FITC (for apoptosis) and 7-AAD (for viability) dyes were added, the tube was vortexed and allowed to incubate in the dark for 15 minutes. The solution was diluted to 1 mL with 1× Annexin V Binding Buffer, vortexed and analyzed by flow cytommetry. […] With 2% DMSO, cell viability reached about 45%, and with 10% DMSO, cell viability reached around 78%.

[1] = test system: CD34+ cells (hematopoietic stem cells); experiment: colony forming unit (CFU) assay after cryopreservation of umbilical cord blood; format: cell-based, human; details: for combined results of the CFU assays vs control: UCB units 26, 27, 28 combined, FIG. 41; for BFU-E / CFU-G / CFU-GEMM / CFU-GM / CFU-M / Total Number of Colonies: post-thaw, 14 days in Methocult
Procedure: (§1) Aliquots of LC (50,000 CD34^+ cells) are added to 2.0 mL cryovials. For each experiment, four cryovials are prepared (two for post-thaw viability analysis using flow cytometry and two for functionality analysis using the colony forming unit assay). Cryovials are kept on ice until placement in −80° C. freezer. Cryovials are centrifuged at 400 g and 10° C. for 5 minutes to pellet cells. After centrifugation, the time taken until placement in −80° C. freezer should not exceed 10 minutes. Supernatant is removed by aspiration or by decanting, but preferably by aspiration. Plasma (volume depends on desired cryosolution concentration) is added and cells are suspended by pipetting. Pre-made cryosolutions (see Cryosolutions) are added (volume depends on desired cryosolution concentration) and mixed by pipetting. Cryovials are placed in a Mr. Frosty® rate controlled freezing container which is then placed in a −80° C. freezer for 24 hours. By placing the cryovials in the freezing container, their contents undergo a cooling rate of about −1° C. per minute. After 24 hours, the cryovials are transferred to a liquid nitrogen dewar for storage until thawed for analysis.
(§2) Cryosolutions are prepared in distilled autoclaved water supplemented with 0.9% saline and 5% dextran for cryopreservation experiments and diluted with different volumes of plasma in cryovials depending on desired concentration of ice recrystallization inhibitor. N-(4-chlorophenyl)-D-gluconamide (4a) and N-(2-fluorophenyl)-D-gluconamide (2a) are prepared at 25 mM and N-(4-methoxyphenyl)-D-gluconamide (3a) and N-(2,6-difluorobenzyl)-D-gluconamide (1b) are prepared at 55 mM. 100, 50, 33 or 20 μL of 25 mM N-(4-chlorophenyl)-D-gluconamide (4a) or N-(2-fluorophenyl)-D-gluconamide (2a) are added to cryovials containing 50,000 CD34^+ cells suspended in 0, 50, 67, or 80 μL of plasma, respectively, for a final IRI concentration of 25, 12.5, 8 or 5 mM, respectively. 100, 50, 33 or 20 μL of 55 mM N-(4-methoxyphenyl)-D-gluconamide (3a) or N-(2,6-difluorobenzyl)-D-gluconamide (1b) are added to cryovials containing 50,000 CD34^+ cells suspended in 0, 50, 67, or 80 μL of plasma, respectively, for a final IRI concentration of […], 18 or 11 mM, respectively.
Cryovials are thawed in a 37° C. water bath and diluted with 900 μL of IMDM (10% FBS, 1% penicillin/streptomycin). Cryovials are placed on ice until washed. Samples are mixed by pipetting and 80 μL is transferred to a 15 mL Falcon tube. 5 mL of Iscove's Modified Dulbecco's Medium (IMDM) supplemented with 10% fetal bovine serum (FBS) is added and this mixture is centrifuged at 1100 rpm for six minutes to yield a cell pellet and a supernatant. The supernatant is removed by aspiration and the cell pellet is resuspended in 1 mL IMDM (2% FBS) to form a suspension. The suspension is mixed by pipetting. 150 μL of this cell suspension is added to 3 mL Methocult™ media and plating is performed in accordance with manufacturer's instruction. The suspension with Methocult™ media is mixed adequately by vortexing for 20 seconds. The contents are allowed to settle and bubbles are allowed to subside before plating (approximately 5-10 minutes). Using a 3 mL syringe and 16 gauge blunt needles, 2.5 mL of the cell suspension in Methocult™ is taken from the bottom. 1 mL of this 2.5 mL is added to two 5 mL cell culture dishes. The dishes are swirled to ensure cells in Methocult™ medium coat the entire bottom of the dish. A third 5 mL dish is prepared to contain distilled autoclaved water without a lid. These three 5 mL dishes are placed in a 100 mL plate; two 5 mL dishes contain 1 mL of cell suspension in Methocult™ medium with the lid on and one containing distilled autoclaved water with the lid off. The lid is placed on the 100 mL plate and stored in a 37° C. incubator (5% CO2) for two weeks.

[2] = splat cooling ice recrystallization inhibition (IRI) assay
Procedure: In this assay, the area of ice crystals are measured after a 30 minute annealing time at −6.4° C. and compared to a positive control for ice recrystallization resulting in a quantitative measurement of the mean ice grain size. For a positive control, a phosphate buffered saline (PBS) solution was utilized. All samples were normalized to the PBS positive control. The ice recrystallization inhibition activity of the carbohydrate-based non-ionic surfactants n-octyl-β-D-glucopyranoside (compound 3) and n-octyl-β-D-galactopyranoside (compound 4) is shown in FIG. 1.
In this assay, the area of ice crystals are measured after a 30 minute annealing time at −6.4° C. and compared to a positive control for ice recrystallization resulting in a quantitative measurement of the mean ice grain size. For a positive control, a PBS solution was utilized. All samples were normalized to the PBS positive control.
N-aryl-D-gluconamides (3a), (2a), (4a), and (1b) are a class of low molecular weight carbohydrate-based compounds. The ice recrystallization inhibition activity of (3a), (2a), (4a), and (1b) was assessed using a “splat cooling” assay. In this assay, the area of ice crystals are measured after a 30 minutes annealing time at −6.4° C. and compared to a positive control for ice recrystallization resulting in a quantitative measurement of the mean ice grain size. For a positive control, PBS was utilized. All samples were normalized to the PBS positive control.

[3] = test system: CD34+ cells (hematopoietic stem cells); experiment: post-thaw viability of CD34+ cells of cryopreserved umbilical cord blood, flow cytometry; format: cell-based, human
Procedure: Whole umbilical cord blood (UCB) should be stored at room temperature (15-25° C.) and processed within 48 hrs of collection. UCB is removed from collection bag and spilt in equal parts into 50 mL Falcon tubes. No more than 25 mL of UCB should be added per Falcon tube. UCB is diluted with 6% hetastarch (Hespan) to obtain a final concentration of 1% hetastarch and incubated for 10 minutes at room temperature. The tubes are then centrifuged at 50 g at 10° C. for 15-20 minutes, depending on volume. The centrifuge should not brake to stop. For total volumes of 30 mL, 15-17 minute centrifugation is utilized and for total volumes of 35 mL, 17-20 minute centrifugation is utilized. The supernatant and buffy coat (plasma and leukocytes) are removed carefully (not collecting RBCs) from the tubes and collected into new 50 mL Falcon tubes. These tubes are centrifuged at 400 g and 10° C. for 10 mins to pellet cells. The centrifuge brake can now be utilized. Plasma is removed and kept in new 50 mL Falcon tubes on ice. The cell pellets resuspended and combined in plasma to a total volume of 20 mL to generate leukocyte concentrate (LC). The LC is kept on ice for the duration of its use. Total mononuclear (CD45^+) and CD34^+ (hematopoetic stem cells) cell concentrations and viability are determined by flow cytometry (see Flow Cytometry procedure below). Aliquots of LC (50,000 CD34^+ cells) are utilized for cryopreservation experiments (see Cryopreservation Experiments procedure below).
as §1, §2
Total mononuclear cell (CD45+) and progenitor cell (CD34+) viability is assessed by flow cytometry using International Society of Hematotherapy and Graft Engineering (ISHAGE) guidelines (J. Hematother. Stem Cell Res. 1996, 5, 213-226). […]

[4] = 10% DMSO (⅕ dilution with plasma), UCB Unit 27
[5] = 10% DMSO (⅕ dilution with plasma), UCB Unit 28
[6] = 22 mM in PBS, 30 min annealing at −6.4° C.

O=C(Nc1ccccc1)[C@H](O)[C@@H](O)[C@H](O)[C@H](O)CO [(1a), phenyl-aldonamide]
Apoptosis (%) (Tf1-α cells; 0% DMSO): 0% | Cell Viability (%) (Tf1-α cells; 0% DMSO): 0.07% | Apoptosis (%) (Tf1-α cells; 2% DMSO): 0.9% | Cell Viability (%) (Tf1-α cells; 2% DMSO): 34.71% | Apoptosis (%) (Tf1-α cells; 10% DMSO): 4.22% | Cell Viability (%) (Tf1-α cells; 10% DMSO): 68.82%

O=C(NCc1cc(F)cc(F)c1)[C@H](O)[C@@H](O)[C@H](O)[C@H](O)CO [(2b), N-(3,5-difluorobenzyl)-D-gluconamide]
combined results of the CFU assays vs control [1]: did not perform particularly well

O=C(Nc1ccccc1Cl)[C@H](O)[C@@H](O)[C@H](O)[C@H](O)CO [(5a), N-(2-chlorophenyl)-D-gluconamide]
BFU-E ([1]; 5 mM IRI, 10% DMSO): 19.2 | CFU-G ([1]; 5 mM IRI, 10% DMSO): 5.0 | CFU-GEMM ([1]; 5 mM IRI, 10% DMSO): 2.3 | CFU-GM ([1]; 5 mM IRI, 10% DMSO): 5.2 | CFU-M ([1]; 5 mM IRI, 10% DMSO): 1.0 | Total Number of Colonies ([1]; 5 mM IRI, 10% DMSO): 32.7 | BFU-E ([1]; 8 mM IRI, 10% DMSO): 18.0 | CFU-G ([1]; 8 mM IRI, 10% DMSO): 5.0 | CFU-GEMM ([1]; 8 mM IRI, 10% DMSO): 2.0 | CFU-GM ([1]; 8 mM IRI, 10% DMSO): 4.0 | CFU-M ([1]; 8 mM IRI, 10% DMSO): 2.0 | Total Number of Colonies ([1]; 8 mM IRI, 10% DMSO): 31.0 | BFU-E ([1]; 12.5 mM IRI, 10% DMSO): 27.0 | CFU-G ([1]; 12.5 mM IRI, 10% DMSO): 8.0 | CFU-GEMM ([1]; 12.5 mM IRI, 10% DMSO): 4.5 | CFU-GM ([1]; 12.5 mM IRI, 10% DMSO): 6.5 | CFU-M ([1]; 12.5 mM IRI, 10% DMSO): 1.5 | Total Number of Colonies ([1]; 12.5 mM IRI, 10% DMSO): 47.5 | fold increase in functionality relative to the control ([1]; 12.5 mM vs DMSO only): 1.5 fold | BFU-E ([1]; 25 mM IRI, 10% DMSO): 20.5 | CFU-G ([1]; 25 mM IRI, 10% DMSO): 7.0 | CFU-GEMM ([1]; 25 mM IRI, 10% DMSO): 1.0 | CFU-GM ([1]; 25 mM IRI, 10% DMSO): 11.0 | CFU-M ([1]; 25 mM IRI, 10% DMSO): 2.5 | Total Number of Colonies ([1]; 25 mM IRI, 10% DMSO): 42.0 | combined results of the CFU assays vs control [1]: did not perform particularly well

O=C(Nc1ccc(F)cc1)[C@H](O)[C@@H](O)[C@H](O)[C@H](O)CO [(6a), N-(4-Fluorophenyl)-D-gluconamide]
combined results of the CFU assays vs control [1]: did not perform particularly well

COc1ccccc1NC(=O)[C@H](O)[C@@H](O)[C@H](O)[C@H](O)CO [(7a), N-(2-methoxyphenyl)-D-gluconamide]
combined results of the CFU assays vs control [1]: did not perform particularly well

OC[C@@H](O)[C@H](O)[C@H](O)[C@@H](O)CO [D-dulcitol, reference compound]
ice recrystallization inhibition activity ([2]; concentration not given): decreased activity relative to the pyranose forms

OC[C@@H](O)[C@@H](O)[C@H](O)[C@@H](O)CO [D-sorbitol, reference compound]
ice recrystallization inhibition activity ([2]; concentration not given): decreased activity relative to the pyranose forms

C[S+](C)[O-] [DMSO, Dimethyl sulfoxide, reference compound]
Post-Thaw Viab. ([3]; 10% DMSO (no plasma)): 83% | Post-Thaw Viab. [3, 4]: 88% | Post-Thaw Viab. [3, 5]: 87% | Tot. No. Colonies ([1]; 10% DMSO (no plasma)): 47 and 34 | Tot. No. Colonies [1, 4]: 56 and 35 | Tot. No. Colonies [1, 5]: 36 | BFU-E ([1]; 10% DMSO only, IRI None): 15.6 | CFU-G ([1]; 10% DMSO only, IRI None): 5.1 | CFU-GEMM ([1]; 10% DMSO only, IRI None): 2.8 | CFU-GM ([1]; 10% DMSO only, IRI None): 6.8 | CFU-M ([1]; 10% DMSO only, IRI None): 0.7 | Total Number of Colonies ([1]; 10% DMSO only, IRI None): 31 | Tot. No. Colonies, AVG ([1]; average of control solutions): 28 | cell viability (Tf1-α cells; 2% DMSO alone): about 45% | cell viability (Tf1-α cells; 10% DMSO alone): around 78%

CCCCCCCCO[C@@H]1OC(CO)[C@@H](O)[C@H](O)C1O (stereo partly drawn) [compound 3, n-octyl-β-D-glucopyranoside]
ice recrystallization inhibition activity [2, 6]: identical to that of D-glucose | ice recrystallization inhibition activity ([2]; 44 mM in PBS): still identical to that of the 22 mM D-glucose

CCCCCCCCO[C@@H]1OC(CO)[C@H](O)[C@H](O)C1O (stereo partly drawn) [compound 4, n-octyl-β-D-galactopyranoside]
ice recrystallization inhibition activity ([2]; 11 mM in PBS): significantly better than 22 mM D-galactose | ice recrystallization inhibition activity [2, 6]: significantly better than 22 mM D-galactose; also recorded: potent | ice recrystallization inhibition activity ([2]; 44 mM in PBS): significantly better than 22 mM D-galactose
